Measured values: the CheMixHub viscosity set

Assay: xn = mol fraction of the nth substance listed

CN(C)P(=O)(N(C)C)N(C)C + CCCCO
303.15 K, 101.3 kPa
Conditions	viscosity [mPa·s]
x1 = 0.0872	2.283
x1 = 0.1988	2.312
x1 = 0.2977	2.351
x1 = 0.3888	2.404
x1 = 0.4941	2.487
x1 = 0.5894	2.567
x1 = 0.6891	2.655
x1 = 0.7954	2.745
x1 = 0.8991	2.834

COCOC + C1C[C@@H]2[C@H]3CC[C@H](C3)[C@@H]2C1
viscosity [mPa·s], 100 kPa
Conditions	x1 = 0.1048	x1 = 0.2024	x1 = 0.3042	x1 = 0.4061	x1 = 0.5027	x1 = 0.5936	x1 = 0.7008	x1 = 0.8058	x1 = 0.9096
293.15 K	2.257	1.767	1.398	1.122	0.901	0.749	0.616	–	0.428
298.15 K	2.053	1.606	1.295	1.043	0.845	0.704	0.586	0.45	0.408
303.15 K	1.903	1.483	1.202	0.964	0.797	0.664	0.558	0.433	0.393
308.15 K	1.746	1.408	1.12	0.908	0.737	0.628	0.531	0.421	0.38
313.15 K	1.615	1.3	1.047	0.846	0.716	0.594	0.507	0.402	0.368

CC(=O)c1ccccc1 + CC(C)(C)O
viscosity [mPa·s], 101 kPa
Conditions	x2 = 0.1188	x2 = 0.2314	x2 = 0.3395	x2 = 0.4286	x2 = 0.545	x2 = 0.6429	x2 = 0.7373	x2 = 0.8283	x2 = 0.9142
298.15 K	2.081	2.456	2.8	3.08	3.42	3.651	3.856	4.034	4.208
303.15 K	1.794	2.055	2.284	2.473	2.712	2.874	3.004	3.127	3.247
308.15 K	1.573	1.743	1.895	2.023	2.185	2.29	2.378	2.468	2.549

CCC(C)C(C)C (centres undefined) + COC(C)(C)C
298.15 K, 101.33 kPa
Conditions	viscosity [mPa·s]
x2 = 0.0983	0.3824
x2 = 0.1999	0.3758
x2 = 0.2986	0.3693
x2 = 0.3972	0.363
x2 = 0.4975	0.3572
x2 = 0.5979	0.3519
x2 = 0.7006	0.3469
x2 = 0.797	0.3423
x2 = 0.8949	0.3387

CCCCCCCCC + C1CCCCC1
viscosity [mPa·s], 101.33 kPa
Conditions	298.15 K	303.15 K	308.15 K
x2 = 0.106	0.658	0.617	0.576
x2 = 0.1286	0.6708	–	–
x2 = 0.1999	0.664	0.623	0.582
x2 = 0.2414	0.6821	–	–
x2 = 0.2987	0.672	0.632	0.589
x2 = 0.342	0.686	–	–
x2 = 0.3971	0.677	0.633	0.591
x2 = 0.4371	0.7041	–	–
x2 = 0.4952	0.696	0.648	0.602
x2 = 0.5293	0.7089	–	–
x2 = 0.5978	0.708	0.659	0.616
x2 = 0.6059	0.7214	–	–
x2 = 0.683	0.7381	–	–
x2 = 0.6994	0.73	0.679	0.631
x2 = 0.7423	0.7545	–	–
x2 = 0.7989	0.762	0.706	0.658
x2 = 0.8068	0.7761	–	–
x2 = 0.873	0.8053	–	–
x2 = 0.8991	0.805	0.743	0.687
x2 = 0.9395	0.8376	–	–
x2 = 0.9769	0.881	–	–

O=C1CCC[NH+]1C1CCCCC1.O=S(=O)([O-])c1ccccc1 + O
Conditions	viscosity [mPa·s]
303.15 K, 101 kPa, x1 = 0.01351	1.405

CC(=O)c1ccccc1 + CC#N
308.15 K, 101 kPa
Conditions	viscosity [mPa·s]
x1 = 0.048	0.34
x1 = 0.1023	0.3845
x1 = 0.1626	0.4361
x1 = 0.2321	0.4959
x1 = 0.3113	0.5746
x1 = 0.4024	0.6736
x1 = 0.5125	0.8002
x1 = 0.6426	0.9514
x1 = 0.8018	1.144
x1 = 0.9135	1.284
